The results in this text go back to PMC13619035 (British Journal of Clinical Pharmacology, 2026).

The data set is described as follows: Single-dose pharmacokinetic study in healthy volunteers, plasma concentrations by LC-MS/MS. The format is in vivo, human. The settings on record: single oral dose of 20 mg pantoprazole or 10 mg omeprazole, 20 healthy volunteers, fasted.

Method: An open label, randomized, single‐dose pharmacokinetic study in healthy volunteers was conducted in cross‐over design.
The subjects presented to the study facilities fasted in the morning. Three hours after drug intake the subjects received a meal on both study days. […] Venous blood samples (7 mL each) were drawn into EDTA‐containing tubes. Blood samples were centrifuged immediately after blood sampling for 10 min at 2000g to generate blood plasma. Blood plasma was aliquoted and stored at −32 °C until analysis.
Probe drugs and metabolite concentrations were determined using a liquid‐chromatography tandem mass spectrometer (LC–MS/MS) system consisting of an Agilent 1290 Infinity II UHPLC coupled to a Sciex QTRAP6500 + triple quadrupole mass spectrometer.
The total chromatographic method length was increased from 8.5 to 8.8 min. […] Samples were vortexed for 10 s and centrifuged for 20 min at 17.000 x g and 4 °C. A total of 40 μl supernatant were diluted with 40 μl LC grade water, vortexed briefly and centrifuged again for 5 min at 17.000 x g and 4 °C.
The samples were vortexed for 10 s and centrifuged for 20 min at 4 °C and 17.000 x g. […]
The AUC0‐8h metabolic ratios (MR) were calculated as follows: AUC0‐8h MR = AUC0‐8h, metabolite/AUC0‐8h, substrate. […] Statistical significance was assessed using non‐parametric Kruskal‐Wallis test with Dunn's post hoc test. […]

`COc1ccnc(C[S+]([O-])c2nc3ccc(OC(F)F)cc3[nH]2)c1OC` (stereo not shown) [pantoprazole] yielded a tmax of 2 h.
